Data from patent publication US8658668B2, “PI3 kinase/mTOR dual inhibitor” (Eli Lilly and Company, priority 2011, dated 2014).

Columns and labels:
[1] = test system: human renal carcinoma cells 786-O; assay: Xenograft tumor model, 786-O; assay type: in vivo, mouse; details: oral gavage
Method: Expand human glioblastoma cells U87MG and human renal carcinoma cells 786-O, in culture, harvest and inject subcutaneously onto the rear flank of athymic nude mice. Expand human non-small cell lung cancer cells NCI-H1975 in culture, harvest and inject subcutaneously onto the rear flank of CD-1 nu/nu mice. Prepare test compound in an appropriate vehicle and administer by oral gavage when tumors are established (7-21 days after implant). Tumor response is determined by tumor volume measurement performed twice a week during the course of treatment. Body weight is taken as a general measurement of toxicity.

[2] = test system: MAXF 401 human tumor xenograft cells; assay: Oncotest tumor clonogenic assay, MAXF 401; assay type: cell-based; details: MAXF401, colony formation, Mammary MAXF 401, pap. adeno carcinoma, wd, read-out: Absolute IC50
[3] = test system: PRXF DU145 human tumor xenograft cells; assay: Oncotest tumor clonogenic assay, PRXF DU145; assay type: cell-based; details: DU-145, colony formation, Prostate PRXF DU145, adeno carcinoma, ud, read-out: Absolute IC50
[4] = test system: SXF 1186 human tumor xenograft cells; assay: Oncotest tumor clonogenic assay, SXF 1186; assay type: cell-based; details: colony formation, Sarcoma SXF 1186, osteoblastic osteosarcoma, md, read-out: Absolute IC50
[5] = test system: p110α(E545K)/myc leukemic cells; assay: E545Kp110a leukemia model; assay type: in vivo, mouse; details: oral gavage, day 5 through day 11, blood on day 12
Text: Leukemia cell line creation: Transduce embryonic liver cells derived from transgenic embryos, B6.Cg-Tg[IghMyc]22Bri/J (Jackson Laboratory, Bar Harbor, Me.), with a retrovirus expressing a clinically-isolated activating mutation of human p110α (E545K as an amino acid change, G1633A on the nucleotide level) under control of the viral 5′ LTR (long terminal repeat) and expressing GFP (green fluorescent protein) under control of the PGK promoter (MSCV6 FLAG-p110α G1633A PGK/GFP) to create target-driven leukemia cells. Transfer the transduced cells into a lethally irradiated host animal. The transduced cells repopulate the hematopoietic stem cells among bone marrow of the recipient and rescue the recipient animal from radiation-induced lethality due to ablation of the recipient's original bone marrow. Observe the rescued primary animals for development of leukemia via weekly monitoring white blood cell counts in a small amount of blood (10 μL) collected retro-orbitally. Collect blood from primary irradiated animals with confirmed leukemia and serially passage to secondary (non-irradiated) host animals in order to establish as a leukemic cell line.
Subject Animals: Use female C57BL/6 mice (Taconic, Cambridge City, Ind.), 8 to 10 week old and 20 to 22 g in weight, as leukemia recipient animals. Acclimate animals on normal low fat diet (4.5%) prior to inoculation and continue on that diet ad libitum for the duration of the study. Identify individual mice from each group by ear punches. Inoculate animals with leukemic cells from donor animals (day 0).
Syngeneic leukemia model: From a donor animal previously inoculated with the leukemic cell line of interest, collect a small amount of blood retro-orbitally (10 μL) and measure the leukemia cell burden by white blood cell count. From animals with sufficient leukemic burden, collect donor blood, dilute with phosphate-buffered saline (PBS) to 500,000 white blood cells per 200 μL and inject 200 μL per animal retro-orbitally on day 0 to initiate leukemia. […]

CO[C@@H](C)Cn1c(=O)n(C)c2cnc3ccc(-c4cncc(C(C)(C)O)c4)cc3c21 [Example 1, 8-[5-(1-Hydroxy-1-methylethyl)pyridin-3-yl]-1-[(2S)-2-methoxypropyl]-3-methyl-1,3-dihydro-2H-imidazo[4,5-c]quinolin-2-one]
% TGI ([1]; 3 mg/kg BID): 33.9%
% TGI ([1]; 6 mg/kg BID): 56.9%
% TGI ([1]; 10 mg/kg BID): 70.2%
IC50 [2]: 150 nM
IC50 [3]: 269 nM
IC50 [4]: 110 nM
% TGI ([5]; 5 mg/kg qd): 50.5%
% TGI ([5]; 10 mg/kg qd): 76.1%
% TGI ([5]; 20 mg/kg qd): 90.1%
